Measurements from US20240082212A1, “USE OF MDMA FOR TREATMENT OF STRESS-RELATED DISORDERS” (priority 2022, published 2024).
“Also recorded” adds a separate entry of the source.

Tests used:
[1] = test system: C57BL/6J mice; experiment: Head twitch response (HTR); assay type: in vivo, mouse; settings: 30 minutes after injection
Procedure: Male C57BL/6J mice at 6-8 weeks of age were purchased from Jackson Laboratories and housed four per cage in a climate and humidity-controlled room in a vivarium at the University of California, San Diego. The room operated on a reverse light cycle (lights on at 1900 h, off at 0700 h) with food and water available ad libitum, except during testing. All testing was performed during 1000 h and 1800 h. After a minimum of 1 week acclimation to the housing facility, mice were anesthetized using a mixture of ketamine (100 mg/kg IP) and xylazine (10 mg/kg IP). Under deep anesthesia, an incision was made in the scalp and a small neodymium magnet (4.57 mm×4.57 mm×2.03 mm) was attached to the cranium using cyanoacrylate and dental cement. After at least a 2-week recovery period, the mouse was removed from the home cage and injected intraperitoneally with the test article or vehicle (0.9% sterile saline). Immediately, the mouse was placed in a glass cylinder surrounded by a magnetometer coil and the head twitch response (HTR) was assessed for 30 minutes (Halberstadt and Geyer, 2013). The output of the coil was recorded using a Powerlab/8SP with LabChart v.7.3.2 (ADInstruments). Coil voltage was amplified, low-pass filtered (2-10 kHz cut-off frequency) to remove interference, digitized and sampled at 20 kHz. Head twitches were identified using a validated technique based on artificial intelligence (Halberstadt, 2020). Events in the recordings were transformed into a visual representation in the time-frequency domain and deep features were extracted using the pretrained convolutional neural network ResNet-50, and the images were subsequently classified using a Support Vector Machine algorithm.
Test articles (R,S-MDA, R(−)-MDA, S-(+)MDA), R,S-MDMA, R(−)-MDMA and S(+)-MDMA) were supplied by the NIDA Drug Supply Program as neat powders. Racemic MDA and MDMA and their enantiomers were dissolved in saline and injected IP at a volume of 5 mL/kg. Each dose was calculated based on the salt form of the compounds. For each treatment condition, six groups of mice (n=5-6/group) were treated with vehicle or the test drug (0.1, 0.3, 1, 3, or 10 mg/kg) and HTR assessed for 30 minutes immediately following injections. To avoid carryover effects, each treatment condition was performed at least seven days apart. Total number of mice used for the experiment was 63.

[2] = test system: CD (Sprague Dawley) rats; experiment: Rat functional observation battery (FOB) neurobehavioral evaluation after cumulative SC dosing; assay type: in vivo
Procedure: The observations were assessed through a rat functional observation battery (FOB) and continuous physiological measurements on the day of cumulative dosing, which are provided in further detail below.
Methods. A total of 42 adult male CD® (Sprague Dawley) rats (Charles River Laboratories) were surgically implanted with DSI radiotelemetry devices by personnel at Charles River Laboratories Raleigh, NC, per their test site SOPs. Telemetry devices supported continuous recording of temperature, activity, blood pressure and heart rate. Telemeterized rats were shipped to the Charles River Laboratories testing facility (Mattawan, MI) and acclimated to the environment for at least 1 week prior to experimentation. Animals were pair-housed in solid bottom cages with nonaromatic bedding. On the dosing day, animals were singly housed and then returned to the paired cohort following the dosing/telemetry recording phase. Diet (Lab Diet® Certified Rodent Diet #5CR4) and tap water via an automatic water system were available ad libitum, except during designated procedures. Temperature and humidity were maintained according to the Testing Facility SOP. Animals were randomized into treatment groups using a standard, by weight, measured value randomization procedure. Body weight was determined for each rat prior to dosing.
As illustrated in the Table, a total of 36 rats were included in the study. The vehicle and 2 test article doses were administered in a volume of 1 mL/kg to each of 3 groups of n=12 telemeterized rats via subcutaneous injection four times on a given day, followed by neurobehavioral evaluations. This series was repeated 3 times on study. Each group received all 3 dose levels of the applicable test or control article in ascending order with a 1-week washout between dose levels.
Mortality/cage side clinical observations were conducted for all study animals at least twice daily beginning upon receipt through termination, except on days of receipt and termination where frequency was at least once daily. Detailed clinical observations were conducted for all study animals prior to each of the four cumulative doses in a series. Individual body weights were conducted for all study animals at transfer, prior to randomization, on the day of dosing on each of the 3 cycles of dosing. The body weights recorded at transfer and prior to randomization are not reported but are maintained in the study file. Veterinary care was available throughout the course of the study, and animals were examined by the veterinary staff as needed based on clinical signs or other changes. All animals were provided with HydroGel the night prior to their respective dosing days to potentially mitigate any animal welfare issues related to fluid loss/dehydration.
Neurobehavioral evaluations (blinded) were conducted for all study animals 1 hour following the last (4th) cumulative dose of the series. The neurobehavioral parameters evaluated included: activity measurements (arousal/alertness, posture/body carriage, stereotypy, rearing, and appearance), autonomic measurements (exophthalmus, lacrimation, erected fur, pupil response, salivation, defecation, and palpebral closure/ptosis), excitability measurements (vocalizations, startle response, ease of removal, handling reactivity, and convulsions), neuromuscular measurements (gait/mobility, grip strength/response, air righting reflex, tremor, and body tone), physiological measurements (respiration and body temperature), and sensorimotor measurements (touch response/tactile reflex and thermal response).

[3] = 1 h after last of 4 hourly SC injections, R-MDMA and racemic MDMA 10, 20 mg/kg/day, S-MDMA 5, 10 mg/kg/day
[4] = FOB, cumulative SC dosing, dose groups stated in the value

| Compound | head twitch response (HTR) compared to control (vehicle) ([1]; 10 mg/kg IP) | arousal/alertness and rearing [2, 3] | ease of removal from the home cage and handling reactivity (excitability) [2, 3] | forelimb grip strength [2, 3] | salivation and erected fur (autonomic) [2, 3] | unkempt appearance [2, 3] | stereotypies (mouth movements/weaving, circling/retropulsion, sniffing) ([2]; 1 h after last of 4 hourly SC injections, highest doses: S-MDMA 10, racemic-MDMA 20 mg/kg/day, R-MDMA 10, 20 mg/kg/day) | Rank Order Activity Measurement Effects [2, 4] | Rank Order Autonomic Measurement Effects [2, 4] | Rank Order Excitability Measurement Effects [2, 4] | Rank Order Neuromuscular Measurement Effects [2, 4] | Rank Order Physiological Measurement Effects [2, 4] | Rank Order Sensorimotor Measurement Effects [2, 4] | thermal response times ([2]; at levels at least two-fold that of vehicle-treated groups, 1 h after last of 4 hourly SC injections) | head twitch response (HTR) compared to control (vehicle) ([1]; 3 mg/kg IP) |
| --- | --- | --- | --- | --- | --- | --- | --- | --- | --- | --- | --- | --- | --- | --- | --- |
| C[C@H](N)Cc1ccc2c(c1)OCO2 [S-MDA, S(+)-MDA] | reduction of HTR |  |  |  |  |  |  |  |  |  |  |  |  |  |  |
| CNC(C)Cc1ccc2c(c1)OCO2 (single isomer, unassigned) [R-MDMA, R(−)-3,4-methylenedioxymethamphetamine] |  | dose-dependent decreases in arousal/alertness and rearing | Dose-dependent increased difficulty in removal from the home cage and increased handling reactivity | dose-dependent statistically significant decreases in forelimb grip strength | Dose-dependent increased salivation and erected fur | increased incidence of unkempt appearance in a dose-dependent manner | No stereotypical behaviors were reported | S-MDMA (5 mg/kg/day) < R-MDMA (10 mg/kg/day) < Rac.-MDMA (10 mg/kg/day); also recorded: Rac.-MDMA (20 mg/kg/day) < S-MDMA (10 mg/kg/day) < R-MDMA (20 mg/kg/day); also recorded: R-MDMA (0 mg/kg/day) < R-MDMA (10 mg/kg/day) < R-MDMA (20 mg/kg/day); also recorded: Rac.-MDMA (20 mg/kg/day) < S-MDMA (10 mg/kg/day) < R-MDMA (10 mg/kg/day) | R-MDMA (10 mg/kg/day) < S-MDMA (5 mg/kg/day) < Rac.-MDMA (10 mg/kg/day); also recorded: R-MDMA (20 mg/kg/day) < S-MDMA (10 mg/kg/day) < Rac-MDMA (20 mg/kg/day); also recorded: R-MDMA (0 mg/kg/day) < R-MDMA (10 mg/kg/day) < R-MDMA (20 mg/kg/day); also recorded: R-MDMA (10 mg/kg/day) < S-MDMA (10 mg/kg/day) = Rac-MDMA (20 mg/kg/day) | R-MDMA (10 mg/kg/day) < S-MDMA (5 mg/kg/day) < Rac.-MDMA (10 mg/kg/day); also recorded: R-MDMA (20 mg/kg/day) = S-MDMA (10 mg/kg/day) < Rac-MDMA (20 mg/kg/day); also recorded: R-MDMA (0 mg/kg/day) < R-MDMA (10 mg/kg/day) < R-MDMA (20 mg/kg/day); also recorded: R-MDMA (10 mg/kg/day) < S-MDMA (10 mg/kg/day) < Rac-MDMA (20 mg/kg/day) | R-MDMA (10 mg/kg/day) < S-MDMA (5 mg/kg/day) < Rac.-MDMA (10 mg/kg/day); also recorded: R-MDMA (20 mg/kg/day) = S-MDMA (10 mg/kg/day) < Rac-MDMA (20 mg/kg/day); also recorded: R-MDMA (0 mg/kg/day) < R-MDMA (10 mg/kg/day) < R-MDMA (20 mg/kg/day); also recorded: R-MDMA (10 mg/kg/day) < S-MDMA (10 mg/kg/day) < Rac-MDMA (20 mg/kg/day) | R-MDMA (10 mg/kg/day) < S-MDMA (5 mg/kg/day) < Rac.-MDMA (10 mg/kg/day); also recorded: R-MDMA (20 mg/kg/day) < S-MDMA (10 mg/kg/day) = Rac-MDMA (20 mg/kg/day); also recorded: R-MDMA (0 mg/kg/day) = R-MDMA (10 mg/kg/day) = R-MDMA (20 mg/kg/day); also recorded: R-MDMA (10 mg/kg/day) < S-MDMA (10 mg/kg/day) = Rac-MDMA (20 mg/kg/day) | S-MDMA (5 mg/kg/day) < Rac-MDMA (10 mg/kg/day) < R-MDMA (10 mg/kg/day); also recorded: S-MDMA (10 mg/kg/day) < Rac-MDMA (20 mg/kg/day) < R-MDMA (20 mg/kg/day); also recorded: R-MDMA (0 mg/kg/day) < R-MDMA (10 mg/kg/day) < R-MDMA (20 mg/kg/day) | Statistically significant increases in thermal response times | increase in HTR |
